Results as given in US20260130933A1, “PHARMACEUTICAL COMPOSITION FOR PREVENTION OR TREATMENT OF NEPHROPATHY AND/OR DIABETES MELLITUS, COMPRISING ENAVOGLIFLOZIN” (DAEWOONG PHARMACEUTICAL CO., LTD., priority 2022, published 2026).

Assay: Phase 2 clinical trial, blood glucose lowering vs placebo
Assay type: in vivo, human
Conditions: 0.1 mg, 0.3 mg and 0.5 mg groups

OC[C@H]1O[C@@H](c2cc(Cc3ccc(C4CC4)cc3)c(Cl)c3c2CCO3)[C@H](O)[C@@H](O)[C@@H]1O [Enavogliflozin, (2S,3R,4R,5S,6R)-2-(7-chloro-6 (4-cyclopropylbenzyl)-2,3-dihydrobenzofuran-4-yl)-6-(hydroxymethyl)tetrahydro-2H-pyran-3,4,5-triol]
Blood glucose-lowering effect compared to a placebo: statistically significant blood glucose-lowering effect
